Legend:
Assay in all cases: Post-emergence efficacy
Type in all cases: in vivo
[1] = test system: Digitaria insularis (TRCIN); details: 100=total damage to plant, 0=no damage
Excerpt: (§1) When active ingredients are combined, the activity to be expected (E) for any given active ingredient combination obeys the so-called Colby Formula and can be calculated as follows (Colby, S. R., Calculating synergistic and antagonistic responses of herbicide combination, Weeds, Vol. 15, pages 20-22; 1967): • ppm=milligrams of active ingredient (a.i.) per litre • X=% action by first active ingredient using p ppm of the active ingredient • Y=% action by second active ingredient sing q ppm of the active ingredient.
(§2) According to Colby, the expected action of active ingredients A+B using p+q ppm of active ingredient is represented by the following formula: […]
(§3) If the action actually observed (O) is greater than the expected action E then the action of the combination is super-additive, i.e. there is a synergistic effect. In mathematical terms, synergism corresponds to a positive value for the difference of (O−E). In the case of purely complementary addition of activities (expected activity), said difference (O−E) is zero. A negative value of said difference (O−E) signals a loss of activity compared to the expected activity.
(§4) The efficacy of various compositions of the present invention were tested against plants including the following species: Amaranthus retroflexus (AMARE), Echinochloa crus-gali (ECHCG), Lolium multiflorum (LOLMU), Setaria faberi (SETFA), and Digitaria insularis (TRCIN). The compositions are applied post-emergence, and the tests evaluated at certain days-after-application (DAA) as indicated. The tests were evaluated (100=total damage to plant; 0=no damage to plant), and the results are shown below in tables B1 to B11 below.

[2] = test system: Amaranthus retroflexus (AMARE); details: 100=total damage to plant, 0=no damage
Excerpt: as §1, §2, §3, §4

[3] = test system: Echinochloa crus-gali (ECHCG); details: 100=total damage to plant, 0=no damage
Excerpt: as §1, §2, §3, §4

[4] = test system: Setaria faberi (SETFA); details: Table B8, 13 DAA, 100=total damage to plant, 0=no damage
Excerpt: as §1, §2, §3, §4

[5] = test system: Lolium multiflorum (LOLMU); details: Table B11, 15DAA, 100=total damage to plant, 0=no damage
Excerpt: as §1, §2, §3, §4

Compound: COc1ccc(-n2c(=O)c(C(=O)C3C(=O)CCCC3=O)nc3c(Cl)cccc32)cc1 [Formula B1d, fenquinotrione]
- Observed ([1]; Table B2, 16DAA, 500 g/ha): 35
- Observed ([1]; Table B2, 16DAA, 1000 g/ha): 43

Compound: CS(=O)(=O)c1ccc(C(=O)C2C(=O)CCCC2=O)c([N+](=O)[O-])c1 [Formula B1f, mesotrione]
- Observed ([2]; Table B3, 13 DAA, 3.75 g/ha): 18

Compound: CCOCN(C(=O)CCl)c1c(C)cccc1CC [Formula B2a, acetochlor]
- Observed ([3]; Table B4, 15DAA, 4000 g/ha): 50

Compound: Cn1nc(C(F)(F)F)c(CS(=O)(=O)C2=NOC(C)(C)C2)c1OC(F)F [Formula B2d, pyroxasulfone]
- Observed ([3]; Table B5, 15DAA, 125 g/ha): 38
- Observed ([3]; Table B5, 15DAA, 250 g/ha): 35

Compound: CCOC(=O)c1ccccc1S(=O)(=O)NC(=O)Nc1nc(Cl)cc(OC)n1 [Formula B3c, chlorimuron-ethyl]
- Observed ([2]; Table B6, 13DAA, 1.88 g/ha): 88
- Observed ([2]; Table B6, 13DAA, 7.5 g/ha): 83

Compound: CCc1cnc(C2=NC(C)(C(C)C)C(=O)N2)c(C(=O)O)c1 (stereo not shown) [Formula B3j, imazethapyr]
- Observed ([1]; Table B7, 16DAA, 8 g/ha): 30
- Observed ([1]; Table B7, 16DAA, 15 g/ha): 53

Compound: COc1cc(OC)nc(NC(=O)NS(=O)(=O)c2ncccc2C(=O)N(C)C)n1 [Formula B3m, nicosulfuron]
- Observed ([4]; 0.94 g/ha): 0
- Observed ([4]; 1.88 g/ha): 0
- Observed ([4]; 3.75 g/ha): 0

Compound: CCNc1nc(Cl)nc(NC(C)C)n1 [Formula B4c, atrazine]
- Observed ([3]; Table B9, 20DAA, 500 g/ha): 60

Compound: CSc1nnc(C(C)(C)C)c(=O)n1N [Formula B4g, metribuzin]
- Observed ([2]; Table B10, 13 DAA, 7.5 g/ha): 0

Compound: FC(F)c1cc(-c2c(Cl)cccc2Oc2ncc(Cl)cn2)on1 [Formula B5d, rimisoxafen]
- Observed ([5]; 30 g/ha): 18

Compound: CC#Cc1ccc(C2=C(OC(=O)OC)C3CCC(C3)C2=O)c(OC)c1 (stereo not shown) [Formula Ic]
- Observed ([2]; Table B1, 13 DAA, 0.47 g/ha): 0
- Observed ([2]; Table B1, 13 DAA, 0.94 g/ha): 0
- Observed ([2]; Table B3, 13 DAA, 0.47 g/ha): 10
- Observed ([2]; Table B3, 13 DAA, 0.94 g/ha): 0
- Observed ([2]; Table B6, 13DAA, 1.88 g/ha): 7.5
- Observed ([2]; Table B10, 13 DAA, 0.47 g/ha): 10
- Observed ([2]; Table B10, 13 DAA, 0.94 g/ha): 0
- Observed ([2]; Table B10, 13 DAA, 1.88 g/ha): 0
- Observed ([1]; Table B7, 16DAA, 3.125 g/ha): 15
- Observed ([5]; 12.5 g/ha): 60
- Observed ([4]; 0.47 g/ha): 3
- Observed ([4]; 0.94 g/ha): 0
- Observed ([4]; 1.88 g/ha): 0

Compound: bicyclopyrone [Formula B1b]
- Observed ([2]; Table B1, 13 DAA, 0.94 g/ha): 23
- Observed ([2]; Table B1, 13 DAA, 1.88 g/ha): 45

— patent publication US20240373846A1, “Herbicidal Compositions” (SYNGENTA CROP PROTECTION AG, priority 2021, published 2024)
